Measurements as given in patent US20190275035A1, “WNT ANTAGONISTS AND THEIR USE IN METHODS FOR TREATING MYOCARDIAL INFARCTION” (RUPRECHT-KARLS-UNIVERSITÄT HEIDELBERG, priority 2016, published 2019).

Test system: non-canonical WNT signaling in monocytes/macrophages
Experiment: PBMC-derived macrophages stimulated with supernatant of hypoxic AdWIF1-transfected cardiomyocytes
Format: cell-based, rat
Protocol: Neonatal rat ventricular cardiomyocytes (NRVCMs) were isolated as previously described (Hagenmueller et al. 2010). After plating, NRVCMs were allowed to adhere overnight. Cardiomyocytes were cultured under hypoxic conditions (1.5% O2) for either four or 24 hours. Supernatant, RNA and proteins were harvested.
Premade WIF1 and control adenovirus was purchased from Applied Biological Materials Inc. (Richmond, Canada). Adenovirus was amplified according to the manufacturer's instructions. Cardiomyocytes were transfected according to manufacturer's instructions. WIF1 overexpression was allowed to establish for 48 hours. Transfected cardiomyocytes were than cultured under hypoxic conditions as described above (see 1.9).
Adult rats were euthanized using a high dose of pentobarbital. Blood was collected by cardiac puncture into EDTA-coated sample tubes. Mononuclear cells were separated using Histopaque 1083 (Sigma-Aldrich Chemie GmbH, Taufkirchen, Germany) according to manufacturer's instructions. Monocytes/macrophages were allowed to adhere to the cell culture dish for two hours. Non-adherent mononuclear cells were discarded. Macrophages were stimulated with supernatant of hypoxic cardiomyocytes for four hours.
Protein lysates of primary cells and heart tissue were prepared using RIPA buffer supplemented with phosphatase/proteinase inhibitors (Cell Signaling Technology, Danvers, USA). Protein concentrations were measured using BCA assay (ThermoFisher Scientific, Waltham, USA). Equal amounts of protein were separated onto four 15% SDS-PAGE gradient gels (Bio-Rad Laboratories GmbH, München, Germany) and transferred to PVDF membranes (Merck Chemicals GmbH, Darmstadt, Germany). The following primary and HPR-conjugated secondary antibodies were used: monoclonal mouse anti-Active-β-Catenin (anti ABC), clone 8E7 (Merck Millipore, Darmstadt, Germany); monoclonal rabbit anti-JNK1+JNK2+JNK3 [EP1597Y] […] Protein expression was analyzed using ImageJ. Protein bands were normalized to GAPDH (respectively actin) loading control for quantification. […]

[1] = supernatant of WIF1-overexpressing cardiomyocytes vs control cells, FIG. 6B

WIF1: cardiomyocyte-derived WIF1 in supernatant of hypoxic cardiomyocytes transfected with WIF1 adenovirus (AdWIF1)
transcription level of pro-inflammatory cytokine IL1β [1]: reduced | transcription level of pro-inflammatory cytokine IL6 [1]: reduced | JNK phosphorylation in isolated monocytes/macrophages (supernatant of hypoxic WIF1-overexpressing cardiomyocytes vs control supernatant, FIG. 6A): significantly reduced
